Data: patent US10711027B2, “DNA polymerase beta inhibitors” (The Johns Hopkins University, priority 2016, dated 2020)
Where “and” joins values, the source holds several entries; their conditions need not be identical. Identical values can stand only once. Entries after “also recorded” stand apart in the source; their conditions may differ.

What was measured:
HeLa cells [1] = test: Comet assay to visualize DNA damage; format: cell-based, human; details: BLM 2 μM 2 h
Experimental: Bleomycin sulphate treatment of HeLa cells was carried out exactly in the same way as described above. The only difference was that approximately […] HeLa cells were plated in each well of the 6 wells culture plate. After the required incubation steps, the medium was aspirated from the cell culture, and washed with PBS (3×) by adding 5 mL of PBS to each well, scratching with a cell scraper (3 cm blade) and transferring the cells to a 15 mL Falcon tube. Cells were pelleted by centrifuging at 3000 g for 10 min at room temperature. Cells were resuspended in PBS and pelleted again. For the comet assay, cells were suspended in 2 mL PBS/well and counted (generally approximately 1×10^7/mL). An aliquot (10 μL) of the cell suspension was diluted to 1×10^5 cells/mL using PBS and used in an Oxiselect™ Comet Assay Kit (Cell Biolabs, INC. Catalog number STA-350) according to the product manual (www.cellbiolabs.com/sites/default/files/STA-350-comet-assay-kit.pdf). In brief, cell samples were combined with Comet Agarose at 1:10 ratio (v/v), titrurated with a pipette to mix, and immediately pipette 75 μL/well onto the OxiSelect™ Comet Slide. […] View slides by a fluorescence microscopy using a FITC filter. […] The relative tail lengths were determined with Open Comet software.

HeLa cells [2] = test: Clonogenic assay for cell survival; format: cell-based, human; details: for cell death, individual treatment: pro-13 5 μM, pro-1 5 μM, MMS 0.1 mM; for enhancement (potentiation) of MMS cytotoxicity: compared to individual agents
Experimental: HeLa (human cervical carcinoma) cells were maintained in Dulbecco's Modified Eagle's Medium (DMEM), supplemented with 10% fetal bovine serum (FBS), 100 U mL^−1 of penicillin and 100 μg mL^−1 of streptomycin at 37° C. in a humidified incubator at 5% CO2. […] At 90% confluency, there are around 1.5×10^7 cells in one dish of 150 mm×25 mm. Cell viability assay. […] After the indicated time, the medium was removed from the cell culture by aspiration, and washed once with PBS. A stock solution of bleomycin sulphate (1 mM) in DMSO was diluted in the culture medium to 2 μM and then added to the plates keeping the quantity of DMSO constant at 1% for all tests. Cells were then incubated for 2 h at 37° C. in a CO2 incubator. The medium was then subsequently replaced with fresh DMEM-FBS and incubation was continued for an additional 1 or 2 h at 37° C. in a CO2 incubator. […] A portion (10 μL) of the cell suspension was thoroughly mixed with 10 μL of 0.4% solution of trypan blue in PBS (pH 7.2 to 7.3), and placed on a counting slide (BIO-RAD) to count the % of live cells using a TC20 automated cell counter (BIO-RAD). A control experiment without treating with bleomycin sulphate was carried out in parallel. All the experiments were carried out at least 3 times, and each experiment consisted of 3 replicates.
After overnight incubation at 37° C. in a humidified atmosphere of 5% CO2, cells were subjected to the appropriate DNA damaging conditions (or controls). For alkylation experiments, cells were incubated with MMS (0, 0.1, or 0.2 mM), with or without pro-13 (5 μM) for 1 or 2 h. For experiments involving recovery after MMS treatment, the medium containing MMS and/or pro-13 was replaced after 2 h with fresh medium with or without pro-13 (5 μM) and incubation continued for 2-8 h. For BLM experiments, cells were incubated with BLM (2 μM), with or without pro-13 (5 μM) for 2 h, at which time the medium was replaced with fresh medium containing only pro-13 (5 μM) and incubation was continued for 2 h. The growth medium was then removed from each well and the cells were washed with PBS (2×1 mL). […] The single cell suspensions were collected in 1.6 mL tubes and counted using a Bio-Rad TC20 Automated Cell Counter. Stock solutions of single cell suspensions were made in two groups for each concentration with 500 cells/mL (for untreated control) and 1500 cells/mL (for treated cells), respectively. These cells were seeded in 6 well plates (well size; 35 mm×18 mm) in 2 mL of 10% DMEM-FBS. The plates were incubated in humidified atmosphere with 5% CO2 for 7 days. After 7 days, the growth medium was discarded and the attached cells were treated with 0.2% w/v crystal violet solution. The excess dye was washed with water and the colonies were counted under a stereomicroscope. Plating efficiencies (PE) and survival fractions (SF) were calculated as follows: PE=number of colonies[…]number of cells seeded; SF=PE[…]PE (control).

HeLa cells [3] = test: AP/dRP site accumulation in genomic DNA (aldehyde reactive probe); format: cell-based, human
From the text: Evidence that pro-13 leads to BER inhibition in HeLa cells was obtained by determining its effect on the level of aldehyde reactive probe (ARP) sites (Table 1). ARP is routinely used to quantify AP sites in DNA, and has been employed to validate Ape1 inhibition, but dRP detection via this method was not known. Rai et al., 2012; Dorjsuren et al., 2012; Ide et al., 1993; Asaeda et al., 1998. […] Inhibition of Pol β (and/or Pol λ) should lead to a build-up of dRP sites instead of AP, which would be indistinguishable from AP using ARP (Scheme 11). […] The level of AP/dRP sites in the genomic DNA isolated from HeLa cells treated with MMS, pro-13 or a combination, was subsequently measured. Following treatment with the DNA damaging agent (1 h), the medium was replaced with fresh medium with or without pro-13 (5 μM), and the cells were incubated an additional 23 h. The level of ARP reactive sites increased approximately 3-fold when cells were treated with a combination of MMS and pro-13 compared to just the alkylating agent (Table 1), consistent with the inhibition of BER in cells treated with the proinhibitor.
HeLa cells (approximately 1×10^7) were plated in 150 mm×25 mm dishes and treated with DMSO (1% final concentration), MMS (0.3 or 0.4 mM), or pro-13 (5 μM) alone or with a combination of MMS (0.3 or 0.4 mM), and pro-13 (5 μM) for 1 h at 37° C. The cellular medium was then replaced with fresh DMEM-FBS and incubation was continued for 23 h at 37° C. in a CO2 incubator in the absence or presence of pro-13 (5 μM). Cells were then harvested with 0.25% Trypsin-EDTA, and the genomic DNA of each sample was isolated according to Dojindo Genomic DNA isolation kit (www.dojindo.com/TechnicalManual/Manual_GKO3.pdf). The concentration of genomic DNA was measured at 260 nm and adjusted to 100 ng/μL. An aliquot of purified DNA (1 μg) was labeled with 10 μL of aldehyde reactive probe (ARP) reagent (N′-aminooxymethylcarbonylhydrazino-D-biotin), and AP/dRP sites were determined using the DNA damage quantification kit from Dojindo Molecular Technologies (DK02-12) by measuring the absorbance at 650 nm using an ELISA microplate reader (BioRad).

Ape1 = Ape1 (Homo sapiens, UniProt P27695); test: Ape1 activity on a duplex containing AP; format: biochemical
Sequence of Ape1 (P27695 whole entry): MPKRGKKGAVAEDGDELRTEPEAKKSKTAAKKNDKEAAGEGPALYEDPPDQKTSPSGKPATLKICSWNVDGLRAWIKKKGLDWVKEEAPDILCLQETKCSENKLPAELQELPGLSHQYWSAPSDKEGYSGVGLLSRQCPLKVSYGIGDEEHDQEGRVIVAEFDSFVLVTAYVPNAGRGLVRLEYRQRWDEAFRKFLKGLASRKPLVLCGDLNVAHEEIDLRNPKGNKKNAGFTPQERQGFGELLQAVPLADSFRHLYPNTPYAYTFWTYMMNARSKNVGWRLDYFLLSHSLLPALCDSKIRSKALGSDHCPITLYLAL

Molecule: bleomycin [BLM]
- DNA damage (tail length) (HeLa cells [1]): confirms DNA damage; also recorded: increase in the tail length
- cell death (HeLa cells [2]; BLM 2 μM alone 2 h, 2 h recovery): No observable cell death

Molecule: COc1cc(Cl)c(/C=N/OC2C[C@H](n3cc(CNC(=O)c4cc5c(O)cccc5cc4O)c(=O)[nH]c3=O)O[C@@H]2COP(=O)(O)OCC2C[C@H](OC(C)=O)O[C@@H]2OC(C)=O)c(Cl)c1O (stereo partly drawn) [pro-13]
- abasic site repair (HeLa cells [3]; HeLa cells): inhibited
- AP/dRP sites/10^5 bp (HeLa cells [3]; HeLa, MMS 0.3 mM + pro-13 5 μM): 28.0 ± 1.4 sites/10^5 bp
- AP/dRP sites/10^5 bp (HeLa cells [3]; HeLa, MMS 0.4 mM + pro-13 5 μM): 33.0 ± 1.5 sites/10^5 bp
- increase in ARP reactive (abasic) sites vs MMS alone (HeLa cells [3]; HeLa, MMS + pro-13 5 μM): approximately 3 fold
- AP/dRP sites/10^5 bp (HeLa cells [3]; HeLa, pro-13 5 μM, no MMS): 4.6 ± 1.0 sites/10^5 bp
- cytotoxicity of proinhibitor alone (HeLa cells [2]; 5 μM): modest cytotoxic effects
- cell death (HeLa cells [2]; 5 μM alone, 1 h): 2%
- cells survive (HeLa cells [2]; 5 μM alone, 2 h): 93%
- synergism with MMS (HeLa cells [2]; 5 μM, MMS 0.1 or 0.2 mM, 1 or 2 h): synergistic effects
- cytotoxicity of proinhibitor alone (HeLa cells [2]; 5 μM, listed as Pro-13): only slightly cytotoxic; also recorded: only weakly cytotoxic
- cell death, individual treatment (HeLa cells [2]; 2 h): 7%
- fraction cell survival relative to cells incubated in absence of pro-13 (HeLa cells [2]; MMS 0.1 mM + pro-13 2 h, then 4 h additional incubation with pro-13 5 μM): 1/7
- cells survive (HeLa cells [2]; MMS 0.1 mM + pro-13 2 h, then 8 h additional incubation with pro-13 5 μM): 0.20±0.02% and 0.2%
- decrease in fraction cell survival (HeLa cells [2]; pro-13 5 μM + BLM 2 μM vs BLM alone): more than 2 fold
- fraction survival (HeLa cells [2]; pro-13 5 μM + MMS 0.1 mM, 2 h): 0.23 and 0.21±0.04
- fraction survival lower than expected from agents used separately (HeLa cells [2]; pro-13 5 μM + MMS 0.1 mM, 2 h): approximately 3.4 fold
- enhancement (potentiation) of MMS cytotoxicity (HeLa cells [2]; pro-13 5 μM + MMS 0.2 mM): ~13 fold
- enhancement (potentiation) of MMS cytotoxicity (HeLa cells [2]; pro-13 5 μM + MMS 0.2 mM, listed as Pro-13): approximately 13 fold
- cells survived (HeLa cells [2]; pro-13 5 μM + MMS 0.2 mM, longer reaction time (2 h)): < 2%
- cells survive (HeLa cells [2]; pro-13 5 μM co-incubated with BLM 2 μM): 43%

Molecule: COS(C)(=O)=O [MMS, methyl methanesulfonate, reference compound]
- AP/dRP sites/10^5 bp (HeLa cells [3]; HeLa, MMS 0.3 mM, no pro-13): 9.2 ± 1.2 sites/10^5 bp
- AP/dRP sites/10^5 bp (HeLa cells [3]; HeLa, MMS 0.4 mM, no pro-13): 11.0 ± 1.5 sites/10^5 bp
- cell death, individual treatment (HeLa cells [2]; 2 h): 15%
- cells survived (HeLa cells [2]; MMS 0.2 mM without proinhibitor, 2 h): 25%

Molecule: COc1cc(Cl)c(/C=N/OC2C[C@H](n3cc(CNC(=O)c4cc5c(O)cccc5cc4O)c(=O)[nH]c3=O)O[C@@H]2COP(=O)(O)OCC2C[C@H](O)O[C@@H]2O)c(Cl)c1O (stereo partly drawn) [Compound 13]
- effect on Ape1 activity (Ape1): does not affect
